In PubChem BioAssay (NCI):
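In this assay, cells in 96-well plates receive the compound at five concentrations for 48 hours. Endpoints are linearly interpolated between the surrounding concentrations. GI50 = concentration required for 50% inhibition of growth. The concentration for full growth arrest is given as TGI.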

Tests used:
Assay in all cases: NCI tumour cell line growth inhibition, 48 h
SNB-19 CNS = test system: SNB-19 CNS
ACHN renal = test system: ACHN renal
IGROV1 ovarian = test system: IGROV1 ovarian
OVCAR-5 ovarian = test system: OVCAR-5 ovarian
EKVX NSCLC = test system: EKVX NSCLC
NCI-H23 lung = test system: NCI-H23 lung
A549 NSCLC = test system: A549 NSCLC
HCT-116 colon = test system: HCT-116 colon

SMILES | TGI (SNB-19 CNS) | TGI (ACHN renal) | TGI (IGROV1 ovarian) | TGI (OVCAR-5 ovarian) | TGI (EKVX NSCLC) | TGI (NCI-H23 lung) | TGI (A549 NSCLC) | TGI (HCT-116 colon) | GI50 (SNB-19 CNS) | GI50 (ACHN renal) | GI50 (IGROV1 ovarian) | GI50 (OVCAR-5 ovarian) | GI50 (NCI-H23 lung) | GI50 (A549 NSCLC) | GI50 (HCT-116 colon) | GI50 (EKVX NSCLC)
C[n+]1c(/C=C/c2ccc(/C=N/NC(=O)c3ccc(C(=O)N/N=C/c4ccc(/C=C/c5cn6ccccc6[n+]5C)cc4)cc3)cc2)cn2ccccc21 | > 100 µM | > 100 µM | > 100 µM | > 100 µM | > 100 µM | > 100 µM | > 100 µM | > 100 µM | – | – | – | – | – | – | – | –
O=C(Nc1cccc(-n2cc(-c3ccncc3)c(-c3ccc(O)c(Cl)c3)n2)c1)c1ccc(Cl)c(Cl)c1 | > 100 µM | > 100 µM | > 100 µM | > 100 µM | – | > 100 µM | > 100 µM | > 100 µM | 29.7 µM | 4.62 µM | 25.5 µM | 39.5 µM | 15 µM | 6.55 µM | 5.95 µM | –
CN(C)CCNc1nc2ccccc2c2occc12 | > 100 µM | 85.8 µM | 89.6 µM | 88.4 µM | > 100 µM | > 100 µM | > 100 µM | > 100 µM | 71.7 µM | 28.2 µM | 34.1 µM | 37.2 µM | 69.5 µM | 44.7 µM | 34.1 µM | 59.5 µM
CN(C)c1ccc(C(=C2C=CC(=[N+](C)C)C=C2)c2ccccc2Cl)cc1 | 1.29 µM | 1.61 µM | 1.34 µM | 1.48 µM | 1.45 µM | 1.28 µM | 4.24 µM | 0.605 µM | 0.348 µM | 0.4 µM | 0.365 µM | 0.408 µM | 0.282 µM | 0.248 µM | 0.155 µM | 0.162 µM
Nc1nc(-c2cc(-c3cccc4ccccc34)nc(N)n2)cc(-c2cccc3ccccc23)n1 | > 100 µM | > 100 µM | > 100 µM | > 100 µM | > 100 µM | > 100 µM | > 100 µM | > 100 µM | – | – | – | – | – | – | – | –
COc1ccc(-c2nnc(Nc3nc(O)c(C4=c5cc(F)ccc5=NC4=O)s3)o2)cc1 | > 100 µM | > 100 µM | 51.4 µM | > 100 µM | > 100 µM | > 100 µM | > 100 µM | 42.7 µM | 48.2 µM | 35.3 µM | 14.3 µM | > 100 µM | 67.7 µM | 64.6 µM | 20 µM | 96.1 µM
COc1ccc(/C(=N/O)c2cc(OC)c(OC)c(OC)c2)c(OC)c1N | > 100 µM | > 100 µM | > 100 µM | – | > 100 µM | > 100 µM | > 100 µM | > 100 µM | 5.32 µM | 17.8 µM | 7.71 µM | – | 7.06 µM | 8.21 µM | 3.41 µM | 6.64 µM
CCc1ncnc2cc(OCC3CO3)c(OC)cc12 (configuration not stated) | > 100 µM | 21.6 µM | 6.8 µM | > 100 µM | > 100 µM | 16.2 µM | > 100 µM | > 33.7 µM | – | – | – | – | – | – | – | –
COc1cc(C2C3=C(COC3=O)Nc3cc4c(cc32)OCO4)cc2c1OCO2 (configuration not stated) | > 100 µM | > 100 µM | > 100 µM | > 100 µM | > 100 µM | – | > 100 µM | 3.49 µM | 0.143 µM | 0.357 µM | 0.127 µM | 1.09 µM | 0.0757 µM | 0.117 µM | 0.0905 µM | –
C[C@]12CC[C@@H]3c4ccc(O)cc4CC[C@H]3[C@@H]1CC[C@@H]2NS(=O)(=O)c1ccc2ccccc2c1 | > 100 µM | 10.5 µM | 17.2 µM | 13.4 µM | – | 14.8 µM | 13.2 µM | 10.6 µM | 4.17 µM | 2.95 µM | 4.1 µM | 3.4 µM | 3.34 µM | 3.24 µM | 2.98 µM | –
COc1ccc2[nH]c(O)c(/C=c3/ccc4c(c3)N=C(c3ccc(F)cc3)N=4)c2c1 | > 100 µM | – | 17.9 µM | 97.9 µM | > 100 µM | 28.1 µM | > 100 µM | 3.37 µM | 9.47 µM | – | 3.27 µM | 7.1 µM | 3.14 µM | 3.11 µM | 1.63 µM | 14 µM
O=C(COc1ccc(-c2nc3cc(Cl)c(Cl)cc3[nH]2)cc1)N=Nc1c(O)[nH]c2ccccc12 | 6.62 µM | > 100 µM | > 53.3 µM | > 100 µM | > 100 µM | 15.1 µM | – | > 100 µM | 1.78 µM | 3.71 µM | 3.13 µM | > 100 µM | 3.03 µM | – | 9.12 µM | 4.97 µM
N#C/C(=C\c1cccc2cnccc12)N1N=NC2C=CC=CC21 (configuration not stated) | > 100 µM | > 100 µM | > 100 µM | > 100 µM | > 100 µM | > 100 µM | > 100 µM | – | 6.29 µM | 2.5 µM | 2.7 µM | 4.66 µM | 3.27 µM | 3.02 µM | – | 2.63 µM
CC(=O)c1cccc(NC(=O)c2ccc(NC3=C(Cl)C(=O)N(Cc4ccccc4)C3=O)cc2)c1 | > 100 µM | 49.1 µM | – | > 100 µM | 97.3 µM | 43.7 µM | > 100 µM | 25.9 µM | 32.8 µM | 22.7 µM | – | > 100 µM | 23 µM | 25.8 µM | 12.6 µM | 30.3 µM
COc1ccc(C(=O)OC2C(OC3C(O)COC(O[C@H]4C[C@H]5[C@@H]6CC=C7C[C@@H](O)CC[C@]7(C)[C@H]6CC[C@]5(C)[C@H]4[C@H](C)C(=O)CCC(C)C)C3OC(C)=O)OCC(O)C2O)cc1 (some centres not stated) | – | 9.22 µM | 8.79 µM | 1.63 µM | 2.4 µM | 3.37 µM | 9.95 µM | 3.15 µM | – | 0.00747 µM | < 0.003 µM | 0.00601 µM | 0.0144 µM | < 0.003 µM | < 0.003 µM | < 0.003 µM
C#CC(=O)OCC#CCOC(=O)C#C | > 100 µM | 33 µM | – | – | 29.9 µM | 55 µM | > 100 µM | 35.7 µM | – | – | – | – | – | – | – | –
CCCCN1CCN(c2ccc3nc(-c4ccc5nc(-c6ccc(OCC)c(OCC)c6)[nH]c5c4)[nH]c3c2)CC1 | 2.61 µM | 2.12 µM | – | 3.4 µM | – | – | – | 1.66 µM | 1.22 µM | 0.922 µM | – | 1.9 µM | – | – | 0.431 µM | –
